Patent US4605673A, “7H-dibenzo(a,c,)cyclohepten-5-one-(7) derivatives” (Warner-Lambert Company, priority 1982, dated 1986)
Where a name gives a salt, the structure may show the parent alone. Read-outs that look alike come from different tables or passages of the source.

How the values were obtained:
Toxicity (LD50) = conditions: in vivo
[1] = test system: Reserpine-induced hypothermia; assay: (A) Reserpine-induced hypothermia in mice (antidepressive action); assay type: in vivo; conditions: Mus musculus, read-out: Minimal dosage which leads to normalization of body temperature (A)
From the text: The minimal dosage is given which leads to normalization of body temperature measured rectally.

spontaneous motility = assay: (C) Locomotive activity (spontaneous motility), photoelectric systems; assay type: in vivo; conditions: mice; for Spontaneous motility (C), M = methaqualone: 40 m/g i.g.
Protocol: (C) The locomotive activity reflects the stimulating or depressive effects on the C.N. system. The spontaneous motility (impulses per minute) was measured in mice by means of photoelectric systems according to Irwin (Rev. Can. Biol. 20, 239 (1961). K in the margin=control, (twice), M=methaqualone (40 m/g i.g.) and S=substance.

mydriasis = assay: (E) Anticholinergic action measured as mydriasis; assay type: in vivo, mice; conditions: mice
From the text: (§1) (E) Anticholinergic action measured as mydriasis (mice).

[2] = test system: blood-pressure effect of noradrenaline and adrenaline; assay: (F) Autonomous test model after IV catecholamine administration (potentiation of blood-pressure effect of noradrenaline and adrenaline); assay type: in vivo, dogs; conditions: for Potentiation of catecholamine blood-pressure effect (F): dogs, result in words
From the text: (F) Autonomous test model in dogs after IV catecholamine administration.

[3] = test system: hexobarbital sleeping period; assay: (D) Hexobarbital sleeping period (central sedating or stimulating effects); assay type: in vivo; conditions: mice, 82.5 mg/kg hexobarbital IV
Protocol: (D) The lengthening of the sleeping period is a common in vivo method for the determination of central sedating or stimulating effects. The test animals are mice subsequent to intravenous (IV) injection with 82.5 mg/kg hexobarbital. The influence on the sleeping period under the trial substance is given in % for control purposes.

[4] = (E) Anticholinergic action measured as mydriasis; assay type: in vivo, mice; conditions: mouse, in vivo, po
From the text: as §1

gastric secretion = assay: Shay preparation, gastric secretion; assay type: in vivo; conditions: po
[5] = 10 mg/kg s.c., control K 12 (4A), 13 (4B)

Structure (SMILES): CNCCCc1cc(=O)c2ccccc2c2ccccc12 [Example 4C, 5-(3-methylaminopropyl)-7H-dibenzo(a,c)cyclohepten-5-one(7).oxalate]
- LD50 (Toxicity (LD50); po, i.g.): 800 mg/kg
- minimal effective dose ([1]; po, i.g.): 75 mg/kg
- Spontaneous motility (C), S = substance (spontaneous motility; 150 mg/kg i.g., control K 15): 19 impulses per minute
- Anticholinergic action (mydriasis) (E) (mydriasis; up to 200 mg/kg i.g.): no effect
- Potentiation of catecholamine blood-pressure effect (F) [2]: no effect

Structure (SMILES): CN(C)CCC=C1c2ccccc2CCc2ccccc21 [Amitryptyline, reference compound]
- LD50 (Toxicity (LD50); po, i.g.): 200 mg/kg
- LD50 (Toxicity (LD50); sc): 100 mg/kg
- minimal effective dose ([1]; sc): 5 mg/kg
- Spontaneous motility (C), S = substance (spontaneous motility; 5 mg/kg s.c., control K 17): 4 impulses per minute
- Influence on the sleeping period (D) ([3]; 5 mg/kg s.c.): +103%
- ED50 [4]: 23 mg/kg
- ED50 ([2]; Canis lupus familiaris, iv, read-out: Potentiation of catecholamine blood-pressure effect ED50 (F)): 1 mg/kg

Structure (SMILES): CCN(CC)CCCc1cc(=O)c2ccccc2c2ccccc12 [Example 4B, 5-(3-Diethylaminopropyl)-7H-dibenzo(a,c)cyclohepten-5-one(7).oxalate]
- LD50 (Toxicity (LD50); po, i.g.): 200 mg/kg
- minimal effective dose ([1]; po, i.g.): 30 mg/kg
- minimal effective dose ([1]; sc): 10 mg/kg
- Spontaneous motility (C), S = substance (spontaneous motility; [5]): 21 impulses per minute
- Influence on the sleeping period (D) ([3]; 10 mg/kg s.c.): +11%
- Anticholinergic action (mydriasis) (E) (mydriasis; up to 75 mg/kg s.c.): no effect
- Potentiation of catecholamine blood-pressure effect (F) [2]: no effect

Structure (SMILES): Cc1ccccc1-n1c(C)nc2ccccc2c1=O [M]
- Spontaneous motility (C), M = methaqualone (spontaneous motility; Amitryptyline column, control K 20): 2 impulses per minute
- Spontaneous motility (C), M = methaqualone (spontaneous motility; Example 1 column, control K 20): 2 impulses per minute
- Spontaneous motility (C), M = methaqualone (spontaneous motility; Example 4A column, control K 16): 3 impulses per minute
- Spontaneous motility (C), M = methaqualone (spontaneous motility; Example 4B column, control K 20): 2 impulses per minute
- Spontaneous motility (C), M = methaqualone (spontaneous motility; Example 4C column, control K 19): 6 impulses per minute

Structure (SMILES): CN(C)CCCc1cc(=O)c2ccccc2c2ccccc12 [Example 4A, 5-(3-Dimethylaminopropyl)-7H-dibenzo(a,c)cyclohepten-5-one(7)]
- LD50 (Toxicity (LD50); po, i.g.): 200 mg/kg
- minimal effective dose ([1]; po, i.g.): 20 mg/kg
- minimal effective dose ([1]; sc): 5 mg/kg
- Spontaneous motility (C), S = substance (spontaneous motility; [5]): 12 impulses per minute
- Anticholinergic action (mydriasis) (E) (mydriasis; up to 75 mg/kg s.c.): no effect
- Potentiation of catecholamine blood-pressure effect (F) [2]: no effect

Structure (SMILES): CN/C(=N/CCSCc1nc[nH]c1C)NC#N [cimetidine, reference compound]
- inhibition at 80 mg/kg (gastric secretion; read-out: Inhibition of gastric secretion): 45%

Structure (SMILES): CCN(CC)CCOc1cc(=O)c2ccccc2c2ccccc12 [Example 1, 5-(2-Diethylaminoethoxy)-7H-dibenzo(a,c)cyclohepten-5-one(7).hydrochloride]
- LD50 (Toxicity (LD50); po, i.g.): 300 mg/kg
- minimal effective dose ([1]; po, i.g.): 20 mg/kg
- minimal effective dose ([1]; sc): 5 mg/kg
- Spontaneous motility (C), S = substance (spontaneous motility; 5 mg/kg s.c., control K 17): 20 impulses per minute
- Influence on the sleeping period (D) ([3]; 5 mg/kg s.c.): -42%
- Anticholinergic action (mydriasis) (E) (mydriasis; up to 75 mg/kg s.c.): no effect
- Potentiation of catecholamine blood-pressure effect (F) [2]: no effect
- inhibition at 25 mg/kg (gastric secretion; Shay preparation, 25 mg/kg i.g.): 56%
